Data published in patent US8524691B2, “Phosphonated rifamycins and uses thereof for the prevention and treatment of bone and joint infections” (The Medicines Company, priority 2008, dated 2013).
In brackets after ≈: the same amount, converted by molar mass. Several values for one entry are separate records, joined by “and”; a condition that tells them apart may be missing. Equal entries are not always repeated. Where two headings read alike, the source gives them in different places.

Columns and labels:
S. aureus ATCC 13709 [1] = experiment: microbe, parasite or virus in culture; assay type: cell-based; conditions: for Antibacterial activity (in words, from Table 1): S. aureus MIC
Experimental: (§1) Susceptibility of S. aureus strains to the known antibiotics and synthesized compounds was determined by following the guidelines set by NCCLS (M26-A). Compounds were diluted two-fold serially in DMSO and transferred to cation-adjusted Mueller Hinton broth (CAMHB; Becton Dickinson). 50 μL of compounds diluted in CAMHB was mixed with 100 μL of bacteria diluted in CAMHB in 96-well microtiter plates. The final concentration of micro-organisms in the assay was 5×10^5c.f.u. per mL and the final concentration of DMSO in the assay was 1.25%. Assays were set up in duplicate and incubated at 37° C. for 18 h. The lowest concentration of compound that inhibited visible growth was reported as the minimum inhibitory concentration (MIC).

S. aureus ATCC 13709 [2] = experiment: microbe, parasite or virus in culture; assay type: cell-based; conditions: for MIC: Staphylococcus aureus, ATCC13709, 18 h
Experimental: as §1
Susceptibility testing experiments were also carried out in the presence of serum. These experiments were carried out similar to the susceptibility testing with the following modifications. 75 μL of compounds diluted in CAMHB was mixed with 75 μL of bacteria diluted in 100% serum from any given source (commercial pooled mouse serum (MS) and human serum (HS), Equitech-Bio Inc.) or diluted in 8% purified human serum albumin (HSA) (Calbiochem). The final concentration of animal serum in the assay was 50% and the final concentration of purified human serum albumin in the assay was 4%; the concentrations of all other components were identical to those described for susceptibility testing.

[3] = test system: S. aureus ATCC 13709^A, Novobiocin and Rifampicin resistant variant; experiment: Antibacterial susceptibility (MIC), NCCLS broth microdilution; assay type: cell-based
Experimental: as §1

S. aureus ATCC 29213 = experiment: as above; assay type: cell-based
Experimental: as §1

[4] = test system: Novobiocin resistant mutant strain of S. aureus ATCC 13709; experiment: Prophylactic efficacy in rat model of S. aureus bone infection; assay type: in vivo; conditions: tibia 24 h postinfection; for Measured bacterial titer, parent drug: rifabutin 20 mg/kg, listed as Parent drug
Experimental: To determine the in vivo activity of bisphosphonated prodrugs of Rifamycin derived antibacterials in comparison to their non-bisphosphonated parents, compounds 18, 19, 48a, 59, 66, 89, 95, 102, 110, 142b and 164 and their parent drug rifabutin were used as prophylactic therapeutics in an animal model of infection. Specifically, a spontaneous Novobiocin resistant mutant strain of S. aureus ATCC 13709 (a clinical osteomyelitis isolate), was grown overnight at 37° C. in brain heart infusion broth (BHIB). After 16 h of growth, cells were subcultured into fresh BHIB and incubated for 4 to 5 h at 37° C. The cells were washed twice with phosphate-buffered saline (PBS) and resuspended in BHIB supplemented with 10% (vol./vol.) fetal bovine serum at a density of approximately 10^10 colony forming units (CFU)/ml (based upon turbidimetry). The suspension was aliquoted and a portion was used to check the CFU count. The culture was stored frozen (−80° C.) and was used without subculture. For use as an inoculum the culture was thawed, diluted in PBS and kept in an ice bath until it was used.
Animals were infected as described by O'Reilly et al. (Antimicrobial Agents and Chemotherapy (1992), 36(12): 2693-97) to generate the bone infection. Female CD rats (age, 57 to 70 days; n=5/group; Charles River, St-Constant, Canada) were anaesthetized by isofluorane before and during the surgery. Following complete induction of anesthesia, the rat was placed ventral side up and hair was shaved from the surgical site. The skin over the leg was cleaned and disinfected (proviodine-ethanol 70%). A longitudinal incision below the knee joint was made in the sagital plane. The incision was made over the bone below the “knee joint” (tibia head or condyle) but not completely extending to the ankle. A high speed drill fitted with a 2 mm bulb bit was used to drill a hole into the medullar cavity of the tibia. Rats were injected intra-tibially with 0.05 ml 5% sodium morrhuate (sclerosing agent) and then with 0.05 ml of S. aureus suspension (ca. 2×10^7 CFU/rat). The hole was sealed by applying a small amount of dry dental cement which immediately absorbs fluids and adheres to the site. The wound was closed using 3 metal skin clips. Moxifloxacin (as a positive control) was injected once at 10 mg/kg intravenously 1 h postinfection in saline, while the Rifabutin derived prodrugs (prepared in 0.9% saline) were injected at the dose indicated in Table 3 as a single intravenous bolus at different time points prior to the infection.
Infected rats were sacrificed by CO2 asphyxiation 24 h postinfection to monitor the bacterial CFU count. Infected tibiae were removed, dissected free of soft tissue, and weighed. The bones were ground, 50 mg of charcoal were added and the powder was resuspended in 5 ml 0.9% NaCl, serially diluted and processed for quantitative cultures. Treatment efficacy was measured in terms of Log viable bacteria (Log CFU per gram of bone). […] The limit of detection is 2 Log CFU. Statistical comparisons of viable bacterial counts for the different treated and untreated groups were performed with the Dunnett's multiple-comparison test. Differences were considered significant when the P value was <0.05 when comparing treated infected animals to the untreated infected ones. The doses used, the amount of time separating the treatment from the time of infection and the treatment outcomes are shown in Table 3.

| SMILES | Minimum inhibitory concentration, S. aureus ATCC 13709 (S. aureus ATCC 13709 [1]; CAMHB, 37° C., 18 h) | Antibacterial activity (in words, from Table 1) (S. aureus ATCC 13709 [1]) | Minimum inhibitory concentration, ATCC 13709 + 50% Human Serum (S. aureus ATCC 13709 [2]; 50% Human Serum) | Minimum inhibitory concentration, ATCC 13709 + 50% Mouse Serum (S. aureus ATCC 13709 [2]; 50% Mouse Serum) | Minimum inhibitory concentration, ATCC 13709 + 50% Rat Serum (S. aureus ATCC 13709 [2]; 50% Rat Serum) | Minimum inhibitory concentration, S. aureus ATCC 13709^A [3] | Minimum inhibitory concentration, S. aureus ATCC 29213 (S. aureus ATCC 29213; CAMHB, 37° C., 18 h) | also measured |
| --- | --- | --- | --- | --- | --- | --- | --- | --- |
| CO[C@H]1/C=C/O[C@@]2(C)Oc3c(C)c(O)c4c(c3C2=O)C2=NC3(CCN(CC(C)C)CC3)NC2=C(NC(=O)/C(C)=C\C=C\[C@H](C)[C@H](OC(=O)CN(C)CCOC(=O)CNC(=O)CCC(P(=O)(O)O)P(=O)(O)O)[C@@H](C)[C@@H](O)[C@@H](C)[C@H](OC(C)=O)[C@@H]1C)C4=O [Compound 42] | 0.125 mg/L (≈ 0.1 µM) | very low MICs whether in the absence or in the presence of serum | 0.0625 mg/L | 0.125 mg/L | 0.03125 mg/L | >128 mg/L | 0.25 mg/L (≈ 0.2 µM) | – |
| CO[C@H]1/C=C/O[C@@]2(C)Oc3c(C)c(O)c4c(c3C2=O)C2=NC3(CCN(CC(C)C)CC3)NC2=C(NC(=O)/C(C)=C\C=C\[C@H](C)[C@H](OC(=O)CN(C)CC(=O)Nc2ccc(CC(P(=O)(O)O)P(=O)(O)O)cc2)[C@@H](C)[C@@H](O)[C@@H](C)[C@H](OC(C)=O)[C@@H]1C)C4=O [Compound 150] | 64 mg/L (≈ 51.6 µM) | – | – | 128 mg/L | 16 mg/L | >128 mg/L | 64 mg/L (≈ 51.6 µM) | Minimum inhibitory concentration, ATCC 13709 + 50% Human Serum (S. aureus ATCC 13709 [2]): >128 mg/L |
| CO[C@H]1/C=C/O[C@@]2(C)Oc3c(C)c(O)c4c(c3C2=O)C2=NC3(CCN(CC(C)C)CC3)NC2=C(NC(=O)/C(C)=C\C=C\[C@H](C)[C@H](OC(=O)CN(C)C(=O)NC(P(=O)(O)O)P(=O)(O)O)[C@@H](C)[C@@H](O)[C@@H](C)[C@H](OC(C)=O)[C@@H]1C)C4=O [Compound 140] | 16 mg/L (≈ 14.1 µM) | – | 128 mg/L | 32 mg/L | 4 mg/L | >128 mg/L | 16 mg/L (≈ 14.1 µM) | Serum dependence of antibacterial activity (in words) (S. aureus ATCC 13709 [2]; MIC with versus without serum): weak antibacterial activity does not show a serum dependence |
| COc1c(N2C[C@@H]3CCCN[C@@H]3C2)c(F)cc2c(=O)c(C(=O)O)cn(C3CC3)c12 [Moxifloxacin, reference compound] | – | – | – | – | – | – | – | Measured bacterial titer, positive control ([4]; Moxifloxacin 10 mg/kg intravenously once 1 h postinfection, listed as Positive control): 2.62 ± 0.37 Log CFU/g of bone and 3.22 ± 0.65 Log CFU/g of bone and 2.27 ± 0.21 Log CFU/g of bone and 2.63 ± 0.65 Log CFU/g of bone and 2.06 ± 0.10 Log CFU/g of bone and 2.95 ± 1.07 Log CFU/g of bone and 2.2 ± 0.28 Log CFU/g of bone and 3.01 ± 0.74 Log CFU/g of bone |
| CCC(=O)Oc1ccc(P(=O)(O)CP(=O)(O)O)cc1C(C)(C)CC(=O)N[C@@H](Cc1ccccc1)C(=O)N(C)CC(=O)O[C@@H]1[C@@H](C)[C@@H](O)[C@@H](C)[C@H](OC(C)=O)[C@H](C)[C@@H](OC)/C=C/O[C@@]2(C)Oc3c(C)c(O)c4c(c3C2=O)C2=NC3(CCN(CC(C)C)CC3)NC2=C(NC(=O)/C(C)=C\C=C\[C@@H]1C)C4=O.CCN(CC)CC.CCN(CC)CC [Compound 128] | – | near complete loss of activity | – | – | – | >128 mg/L | – | Minimum inhibitory concentration, S. aureus ATCC 13709 (S. aureus ATCC 13709 [1]): >128 mg/L; Minimum inhibitory concentration, ATCC 13709 + 50% Human Serum (S. aureus ATCC 13709 [2]): >128 mg/L; Minimum inhibitory concentration, ATCC 13709 + 50% Mouse Serum (S. aureus ATCC 13709 [2]): >128 mg/L; Minimum inhibitory concentration, ATCC 13709 + 50% Rat Serum (S. aureus ATCC 13709 [2]): >128 mg/L; Minimum inhibitory concentration, S. aureus ATCC 29213 (S. aureus ATCC 29213): >128 mg/L |
| CO[C@H]1/C=C/O[C@@]2(C)Oc3c(C)c(O)c4c(c3C2=O)C2=NC3(CCN(CC(C)C)CC3)NC2=C(NC(=O)/C(C)=C\C=C\[C@H](C)[C@H](OC(=O)CNC(=O)CNC(=O)[C@@H](Cc2ccccc2)NC(=O)CNC(=O)CCC(P(=O)(O)O)P(=O)(O)O)[C@@H](C)[C@@H](O)[C@@H](C)[C@H](OC(C)=O)[C@@H]1C)C4=O.N.N [Compound 79b] | 64 mg/L | – | 128 mg/L | 64 mg/L | 8 mg/L | >128 mg/L | 64 mg/L | – |
| CO[C@H]1/C=C/O[C@@]2(C)Oc3c(C)c(O)c4c(c3C2=O)C2=NC3(CCN(CC(C)C)CC3)NC2=C(NC(=O)/C(C)=C\C=C\[C@H](C)[C@H](OC(=O)CN(CCCCC(P(=O)(O)O)P(=O)(O)O)CCOC(C)=O)[C@@H](C)[C@@H](O)[C@@H](C)[C@H](OC(C)=O)[C@@H]1C)C4=O [Compound 48b] | 0.25 mg/L (≈ 0.205 µM) | very low MICs whether in the absence or in the presence of serum | 0.5 mg/L | 0.25 mg/L | 0.0625 mg/L | >128 mg/L | 0.5 mg/L (≈ 0.41 µM) | – |
| CO[C@H]1/C=C/O[C@@]2(C)Oc3c(C)c(O)c4c(c3C2=O)C2=NC3(CCN(CC(C)C)CC3)NC2=C(NC(=O)/C(C)=C\C=C\[C@H](C)[C@H](O)[C@@H](C)[C@@H](O)[C@@H](C)[C@H](OC(C)=O)[C@@H]1C)C4=O [Rifabutin, reference compound] | – | – | – | – | – | – | – | MIC (S. aureus ATCC 13709 [1]; Staphylococcus aureus, ATCC13709, CAMHB, 37° C., 18 h, read-out: Minimum inhibitory concentration, S. aureus ATCC 13709): 0.0312 mg/L (≈ 0.0369 µM); MIC (S. aureus ATCC 13709 [2]; read-out: Minimum inhibitory concentration, ATCC 13709 + 50% Human Serum): 0.0312 mg/L; MIC (S. aureus ATCC 13709 [2]; read-out: Minimum inhibitory concentration, ATCC 13709 + 50% Mouse Serum): 0.0625 mg/L; MIC (S. aureus ATCC 13709 [2]; read-out: Minimum inhibitory concentration, ATCC 13709 + 50% Rat Serum): 0.0312 mg/L; Measured bacterial titer, parent drug ([4]; 1 day prior to infection): 2.03 ± 0.07 Log CFU/g of bone and 2.09 ± 0.06 Log CFU/g of bone and 2.03 ± 0.09 Log CFU/g of bone and 2.07 ± 0.09 Log CFU/g of bone and 2.35 ± 1.12 Log CFU/g of bone; Measured bacterial titer, parent drug ([4]; 5 days prior to infection): 2.75 ± 0.94 Log CFU/g of bone and 4.27 ± 1.91 Log CFU/g of bone and 4.34 ± 0.79 Log CFU/g of bone and 4.71 ± 1.05 Log CFU/g of bone; MIC (S. aureus ATCC 29213; Staphylococcus aureus, ATCC29213, CAMHB, 37° C., 18 h, read-out: Minimum inhibitory concentration, S. aureus ATCC 29213): 0.0156 mg/L (≈ 0.0184 µM) |
